Results on 10 molecules are retold here after patent US7803769B2 (priority 2006, dated 2010).

In assay [1] the test system is thapsigargin-induced IL-2 production in human whole blood.
The next assay has as its target T1, human Kv1.3 (CHO) (Homo sapiens, UniProt P22001).
T1 construct: expressed in transfected cells
As to the kind of experiment: cell-based.

Another assay concerns the target T2, human Kv1.1 (HEK293) (Homo sapiens, UniProt Q09470).
T2 construct: expressed in transfected cells; host or cells: HEK293
Kind of assay: cell-based.

The next assay addresses human Kv1.3 channel (Homo sapiens, UniProt P22001). The assay is classed as cell-based.
For assay [2], the system named is CD40L on CD4+ T cells in human whole blood. The format is cell-based.
Assay [3] deals with IL-2R on CD4+ T cells in human whole blood. The assay is classed as cell-based.
Assay [4] relates to thapsigargin-induced IFN-g production in human whole blood. The format is cell-based.

“Also recorded” adds a separate entry of the source. Bridge positions count the residues as written; N and C are the ends. Square brackets hold non-standard residues; d marks the D form. Ends that are not written are not given here. Peptide text beside a SMILES is read from it. 1Nal = N[C@@H](Cc1cccc2ccccc12)C(=O)O

human Kv1.3 channel, sequence (P22001 whole entry): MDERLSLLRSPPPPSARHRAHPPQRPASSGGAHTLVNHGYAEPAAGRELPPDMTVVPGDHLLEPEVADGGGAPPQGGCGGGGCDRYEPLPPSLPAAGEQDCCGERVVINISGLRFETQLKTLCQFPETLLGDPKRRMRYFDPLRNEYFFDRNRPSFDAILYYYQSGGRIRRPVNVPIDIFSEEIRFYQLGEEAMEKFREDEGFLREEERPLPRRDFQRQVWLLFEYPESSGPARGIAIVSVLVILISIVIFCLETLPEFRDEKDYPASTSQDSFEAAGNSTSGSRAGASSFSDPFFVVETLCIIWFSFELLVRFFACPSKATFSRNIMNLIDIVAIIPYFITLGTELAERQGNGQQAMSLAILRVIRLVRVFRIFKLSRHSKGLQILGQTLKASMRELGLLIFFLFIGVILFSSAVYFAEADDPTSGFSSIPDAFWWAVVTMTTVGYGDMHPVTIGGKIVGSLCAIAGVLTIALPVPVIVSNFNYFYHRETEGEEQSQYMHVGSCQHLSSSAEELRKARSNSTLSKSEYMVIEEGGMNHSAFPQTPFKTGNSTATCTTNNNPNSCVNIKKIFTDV
T2 sequence (Q09470 whole entry): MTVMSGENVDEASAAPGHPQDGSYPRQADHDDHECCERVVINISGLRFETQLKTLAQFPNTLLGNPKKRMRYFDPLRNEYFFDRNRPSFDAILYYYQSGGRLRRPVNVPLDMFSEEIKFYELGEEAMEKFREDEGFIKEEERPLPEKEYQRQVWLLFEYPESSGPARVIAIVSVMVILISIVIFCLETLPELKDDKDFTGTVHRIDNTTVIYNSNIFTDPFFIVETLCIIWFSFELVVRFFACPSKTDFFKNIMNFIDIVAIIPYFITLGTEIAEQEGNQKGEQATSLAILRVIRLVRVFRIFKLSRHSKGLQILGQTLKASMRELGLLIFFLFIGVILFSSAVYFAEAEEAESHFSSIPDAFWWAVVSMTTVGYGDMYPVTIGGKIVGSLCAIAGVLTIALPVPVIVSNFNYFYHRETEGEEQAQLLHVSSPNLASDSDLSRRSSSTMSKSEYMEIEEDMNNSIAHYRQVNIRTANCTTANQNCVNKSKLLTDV
T1 sequence (P22001 whole entry): as the sequence (P22001 whole entry) above

In the case of `CC[C@H](C)[C@@H]1NC(=O)[C@H](CCCCN)NC(=O)[C@@H](NC(=O)[C@H](CCCCN)NC(=O)[C@@H](NC(=O)[C@H](CC(N)=O)NC(=O)[C@@H](NC(=O)[C@@H](NC(=O)[C@@H](NC(=O)CN)C(C)C)[C@@H](C)CC)[C@@H](C)CC)C(C)C)CSSC[C@@H]2NC(=O)[C@H](CCCCN)NC(=O)CNC(=O)[C@H](Cc3ccccc3)NC(=O)[C@H](CCCNC(=N)N)NC(=O)[C@H](CCSC)NC(=O)CNC(=O)[C@H](C)NC(=O)[C@H](CCCCN)NC(=O)[C@H](CCCCN)NC(=O)[C@@H]3CSSC[C@@H](C(=O)N[C@H](C(=O)N4CCC[C@H]4C(=O)N[C@@H](CCCCN)C(=O)O)[C@@H](C)O)NC(=O)[C@H](Cc4c[nH]cn4)NC(=O)[C@H](CSSC[C@H](NC(=O)[C@H](CCC(N)=O)NC(=O)[C@H](CCCNC(=N)N)NC(=O)[C@H](CO)NC1=O)C(=O)N[C@@H](CC(C)C)C(=O)N[C@@H](CCC(=O)O)C(=O)N1CCC[C@H]1C(=O)N3)NC(=O)[C@H](CCCCN)NC(=O)CNC(=O)[C@H](CC(N)=O)NC(=O)[C@H](C)NC2=O` [OSK1[Ala-29]] (H-GVIINVKCKISRQCLEPCKKAGMRFGKCANGKCHCTPK-OH; disulfide 8-28, 14-33, 18-35), the “whole blood cytokine response (IL-2 and IFNg), blockade in words” value (shortened to “whole blood cytokine response”) in assay [1] is “several orders of magnitude more potent”. Turning to `CC[C@H](C)[C@@H]1NC(=O)[C@H](CCCCN)NC(=O)[C@@H](NC(=O)[C@H](CCCCN)NC(=O)[C@H](Cc2cccc3ccccc23)NC(=O)[C@H](CC(N)=O)NC(=O)[C@@H](NC(=O)[C@@H](NC(=O)[C@@H](NC(=O)CN)C(C)C)[C@@H](C)CC)[C@@H](C)CC)CSSC[C@@H]2NC(=O)[C@H](CCCCN)NC(=O)CNC(=O)[C@H](Cc3ccccc3)NC(=O)[C@H](CCCNC(=N)N)NC(=O)[C@H](CCSC)NC(=O)CNC(=O)[C@H](C)NC(=O)[C@H](CCCCN)NC(=O)[C@H](CCCCN)NC(=O)[C@@H]3CSSC[C@@H](C(=O)N[C@H](C(=O)N4CCC[C@H]4C(=O)N[C@@H](CCCCN)C(=O)O)[C@@H](C)O)NC(=O)[C@H](Cc4c[nH]cn4)NC(=O)[C@H](CSSC[C@H](NC(=O)[C@H](CCC(N)=O)NC(=O)[C@H](CCCNC(=N)N)NC(=O)[C@H](CO)NC1=O)C(=O)N[C@@H](CC(C)C)C(=O)N[C@@H](CCC(=O)O)C(=O)N1CCC[C@H]1C(=O)N3)NC(=O)[C@H](CCCCN)NC(=O)CNC(=O)[C@H](CC(N)=O)NC(=O)[C@H](CCSC)NC2=O` [V6Nal] (H-GVIIN[1Nal]KCKISRQCLEPCKKAGMRFGKCMNGKCHCTPK-OH; disulfide 8-28, 14-33, 18-35), the IC50 is 0.021 nM on human Kv1.3 (CHO) and less than 1.52 pM on human Kv1.1 (HEK293). Consider `CC[C@H](C)[C@@H]1NC(=O)[C@H](CCCCN)NC(=O)[C@@H](NC(=O)[C@H](CCCCN)NC(=O)[C@H](CCCNC(=N)N)NC(=O)[C@H](CC(N)=O)NC(=O)[C@@H](NC(=O)[C@@H](NC(=O)[C@@H](NC(=O)CN)C(C)C)[C@@H](C)CC)[C@@H](C)CC)CSSC[C@@H]2NC(=O)[C@H](CCCCN)NC(=O)CNC(=O)[C@H](Cc3ccccc3)NC(=O)[C@H](CCCNC(=N)N)NC(=O)[C@H](CCSC)NC(=O)CNC(=O)[C@H](C)NC(=O)[C@H](CCCCN)NC(=O)[C@H](CCCCN)NC(=O)[C@@H]3CSSC[C@@H](C(=O)N[C@H](C(=O)N4CCC[C@H]4C(=O)N[C@@H](CCCCN)C(=O)O)[C@@H](C)O)NC(=O)[C@H](Cc4c[nH]cn4)NC(=O)[C@H](CSSC[C@H](NC(=O)[C@H](CCC(N)=O)NC(=O)[C@H](CCCNC(=N)N)NC(=O)[C@H](CO)NC1=O)C(=O)N[C@@H](CC(C)C)C(=O)N[C@@H](CCC(=O)O)C(=O)N1CCC[C@H]1C(=O)N3)NC(=O)[C@H](CCCCN)NC(=O)CNC(=O)[C@H](CC(N)=O)NC(=O)[C@H](CCSC)NC2=O` [V6R] (H-GVIINRKCKISRQCLEPCKKAGMRFGKCMNGKCHCTPK-OH; disulfide 8-28, 14-33, 18-35), for which the IC50 was determined as 0.00865 nM on human Kv1.3 (CHO) and 2.4 pM at human Kv1.1 (HEK293). “Fc-L10-OSK1[K7S,E16K,K20D]: Fc-L10-OSK1 with K7S, E16K and K20D substitutions”: in the assay with human Kv1.3 channel, the “block of human Kv1.3 current (in words)” value is “significant decrease in potency as well as selectivity” and the “fold less potent than the synthetic OSK1 toxin peptide (Kv1.3)” value was “approximately 21 fold”. As for “Fc-L10-OSK1[K7S]: Fc-L10-OSK1 with lysine to serine at position 7”, in the assay with human Kv1.3 channel, the “difference in Kv1.3 potency compared to Fc-L10-OSK1” value stood at 2 fold and the “fold less potent than the synthetic OSK1 toxin peptide (Kv1.3)” value was “approximately 10 fold”. “Fc-L10-ShK[2-35]: human IgG1 Fc fused via 10 amino acid linker to ShK[2-35]”: in assay [2], the “thapsigargin-induced upregulation of CD40L on T cells (in words)” value is on record as “blocked”. The “thapsigargin-induced upregulation of IL-2R on T cells (in words)” value in assay [3] is on record as “blocked”. In assay [4], the “thapsigargin-induced IFN-g production in human whole blood (in words)” value is listed as “suppressed; also recorded: blocked”. Further, in the assay with human Kv1.3 channel, the “block of human Kv1.3 current (in words)” value is recorded as “potently blocks human Kv1.3 current”. For the molecule “SEQ ID No: 4989: OSK1 analog without beta strand 1 (des 1-7), Table 42 (CKISRQCLKPCKDAGMRFGKCMNGKCHC-NH2; ends and bridges not checked)”, in assay [1], the “whole blood cytokine response” value was “still retain activity in blocking inflammation”.

B1: L2-6H-L3-CH2-L10-OsK1 (1-38) (protein)
chain: MGGHHHHHHGGGPSVFLFPPKPKDTLMISRTPEVTCVVVDVSHEDPEVKFNWYVDGVEVHNAKTKPREEQYNSTYRVVSVLTVLHQDWLNGKEYKCKVSNKALPAPIEKTISGGGGSGGGGSGVIINVKCKISRQCLEPCKKAGMRFGKCMNGKCHCTPK
Consider B1, for which the values for the IC50 in assay [1] (read-out: WB/IL-2 (IC50)) and in assay [4] (read-out: WB/IFNg (IC50)) were 38.5 nM and 55.2 nM, respectively.

B2: FcLoop-L2-OsK1-L2: OsK1 inserted into the human IgG1 Fc-loop with 2-Gly linkers on both sides (protein)
chain: MDKTHTCPPCPAPELLGGPSVFLFPPKPKDTLMISRTPEVTCVVVDVSHEDPEVKFNWYVDGVEVHNAKTKPREEQYNSTYRVVSVLTVLHQDWLNGKEYKCKVSNKALPAPIEKTISKAKGQPREPQVYTLPPSRDELGGGVIINVKCKISRQCLEPCKKAGMRFGKCMNGKCHCTPKGGTKNQVSLTCLVKGFYPSDIAVEWESNGQPENNYKTTPPVLDSDGSFFLYSKLTVDKSRWQQGNVFSCSVMHEALHNHYTQKSLSLSPGK
modifications: Definition of Artificial Sequence: Synthetic protein
For B2, the “whole blood cytokine response” value in assay [1] is “potent blockade of the whole blood cytokine response in this assay, with IC50 values in the pM range”.

B3: FcLoop-L2-ShK-L2: ShK inserted into the human IgG1 Fc-loop with 2-Gly linkers on both sides (protein)
chain: MDKTHTCPPCPAPELLGGPSVFLFPPKPKDTLMISRTPEVTCVVVDVSHEDPEVKFNWYVDGVEVHNAKTKPREEQYNSTYRVVSVLTVLHQDWLNGKEYKCKVSNKALPAPIEKTISKAKGQPREPQVYTLPPSRDELGGRSCIDTIPKSRCTAFQCKHSMKYRLSFCRKTCGTCGGTKNQVSLTCLVKGFYPSDIAVEWESNGQPENNYKTTPPVLDSDGSFFLYSKLTVDKSRWQQGNVFSCSVMHEALHNHYTQKSLSLSPGK
modifications: Definition of Artificial Sequence: Synthetic protein
For the molecule B3, the “whole blood cytokine response” value in assay [1] is recorded as “potent blockade of the whole blood cytokine response in this assay, with IC50 values in the pM range”.
